# “And” between values parts separate entries of the source, which are not always exact repeats. Identical values can stand only once.
# What was measured:
# [1] = Body weight of cisplatin-induced SD rats; format: in vivo, rat
# Description: (§1) Healthy male SPF grade SD rats (body weight 250-300 g) were selected. Cisplatin+compound B group: 5 mg/kg i.p.+compound B at 200 mg/kg i.p., with compound B being administered 30 min prior to cisplatin administration Cisplatin+amifostine group: 5 mg/kg i.p.+AMI at 200 mg/kg i.p., with AMI being administered 30 min prior to cisplatin administration Cisplatin+compound A group: 5 mg/kg i.p.+compound A at 800 mg/kg p.o., with compound A being administered 30 min prior to cisplatin administration (1) The SD rats used in the experiment were weighed, labeled, and evenly divided into 5 groups, with 3 SD rats in each group. (2) The compound B, compound A, and AMI groups were respectively administered at the planned concentrations. […] (3) The rats were weighed and recorded daily, and on day 5, blood was taken from the intraocular canthus of the SD rats and placed in an anticoagulant tube.
# [2] = tested on: cisplatin-induced nephrotoxicity in SD rats; test: Cisplatin-induced nephrotoxicity in SD rats: blood creatinine and urea nitrogen; format: in vivo, rat; conditions: for Creatinine / Urea nitrogen: whole blood day 5, individual rats
# Description: as §1, with “selected. Control group: PBS […]” for “selected.”
# [3] = tested on: rat myocardial infarction model (coronary ligation 30 min, reperfusion); test: Myocardial infarction model: myocardial infarction range (TTC staining); format: in vivo; conditions: isosorbide mononitrate injection i.v. 1 mg/kg
# Description: (§2) 1. The rats were grouped and administered according to the following methods (2) Compound B (i.v.) at 100 mg/kg (3) Compound A (i.v.) at 100 mg/kg (4) Compound A (oral) at 500 mg/kg (5) Isosorbide mononitrate injection (i.v.) at 1 mg/kg (equivalent to clinical equivalent dose). There were 10 rats in each group, and the rats were administered intravenously immediately after 30 min of ischemia and reperfusion, i.v. 10% 1 min+i.v. drip 90% 30 min. The administration volume was 2 ml/rat. Compound A (oral) at 500 mg/kg was administered intragastrically 2 h after reperfusion when the animal was awake, and the administration volume was 10 ml/kg. Note: Compounds A and B used in this example were in the form of hydrochloride salts thereof. Given intraperitoneal injection of 3% sodium pentobarbital at 60 mg/kg for general anesthesia, the rats were fixed on an operating table in the supine position. The surgical field of the anterolateral chest was depilated and routinely disinfected. The skin and muscular layer were cut open, purse-string suture was performed on the muscular layer, the chest was opened on the left at the fourth intercostal space, and the heart was pulled out with a ring-shaped retractor. At the position of the anterior descending coronary artery 3-4 mm below the left atrial appendage, a 6/0 damage-free silk thread was threaded, and a nylon thread with a diameter of 1.6 mm was juxtaposed and ligated together with the anterior descending coronary artery, while the other end was left outside the body for later use. The heart was placed back into the chest cavity, the air in the chest cavity was emptied, and the chest cavity was closed. 30 min after ligation, the nylon thread was carefully removed for reperfusion. Compared with the normal lead II electrocardiogram (ECG-II), ST segment elevation in ECG-II by 0.1 mV or more 30 min after coronary artery ligation was regarded as successful ischemia.
# [4] = tested on: rat myocardial infarction model (coronary ligation 30 min, reperfusion); test: Myocardial infarction model: myocardial enzyme LDH in serum; format: in vivo; conditions: isosorbide mononitrate injection i.v. 1 mg/kg
# Description: as §2, with “ischemia. […] Blood was collected from the rats through the abdominal aorta and centrifuged at 3000 rpm×10 min at 4° C., and the upper serum was taken to determine LDH by enzyme-linked immunosorbent assay.” for “ischemia.”
# [5] = tested on: radiation intestinal injury in C57 male mice; test: Protective effect on radiation intestinal injury (HE staining of small intestine); format: in vivo; conditions: 517 mpk i.p. 30 min before 16 Gy abdominal irradiation; fifth day
# Description: (§3) C57 male mice were randomly divided into 4 groups, namely a blank control group, an irradiation group, a compound B (TFA) irradiation group, and an AMI irradiation group, respectively. The mode of administration for each group was an intraperitoneal injection, 30 min before irradiation. The dosage of administration was 517 mpk, and the abdominal irradiation dose was 16 Gy. On the fifth day, the small intestine tissue was taken for HE staining.
# [6] = tested on: SD rat cerebral ischemia reperfusion injury model (MCAO); test: TTC staining and cerebral infarction area in rat ischemic stroke model (MCAO); format: in vivo; conditions: for Cerebral infarction area: individual rats
# Description: Healthy male SPF grade SD rats (body weight 250-300 g) were selected. (1) The rats were anesthetized, the skin on the neck was prepared, and the body temperature was maintained at 37±0.5° C. (2) A midline neck incision was made to expose the right common carotid artery, internal carotid artery and external carotid artery. A 6-0 silk thread was used to ligate the distal end of the external carotid artery at 4 mm from the bifurcation of the common carotid artery, another 6-0 silk thread was inserted at the external carotid artery, and a slipknot was tied near the bifurcation of the common carotid artery. (3) An arterial clamp was used to clamp the common carotid artery. A small opening was cut on the external carotid artery at 3 mm from the bifurcation of the common carotid artery, and a 0.33 mm diameter nylon thread with a treated head end was inserted through the small opening, entered the internal carotid artery, and was inserted inward to the middle cerebral artery, wherein the insertion depth of the nylon thread was about 16±1 mm from the bifurcation of the common carotid artery. (4) The thread embolism was removed 90 min after ischemia, the proximal end of the external artery was ligated with a 6-0 silk thread, the neck wound was sutured with a 3-0 silk thread, the wound was disinfected with povidone iodine, the rats were placed on a heating pad, and after being awake, they were placed in a constant temperature rearing box for rearing. […] After the rats were anesthetized, the brain tissues were taken from the rats, placed in a refrigerator and frozen at -20° C. for 30 min. 1% TTC (W/V) was prepared with PBS and placed in a water bath at 37° C. until the TTC was dissolved, and the frozen brain tissue was sliced, placed in 10 ml of the TTC solution and incubated at 37° C. for 10 min. The brain slices were turned from time to time to make the tissue evenly stained. Normal brain tissue was bright red after staining, whereas the infarction region was pale white in color or light white in a black and white image. In addition, a software was used to measure and statistically analyze the infarction area. In a manner same as in Example 1, experimental animals were selected, except that the experiment was divided into seven groups (i.e., groups […], and G, among which groups C, D, and E were given different dosages of administration from Example 1, group F was given edaravone, and group G was given amifostine).
# [7] = tested on: SD rat cerebral ischemia reperfusion injury model (MCAO); test: Neurobehavioral evaluation (5-point Longa/Bederson score) in rat ischemic stroke model (MCAO); format: in vivo; design: key to Neurological function score After modeling: Longa/Bederson 5-point scale (0-4); higher = more severe deficit; conditions: for Neurological function score After modeling: individual rats
# Source text: Healthy male SPF grade SD rats (body weight 250-300 g) were selected. […] (2) A midline neck incision was made to expose the right common carotid artery, internal carotid artery and external carotid artery. A 6-0 silk thread was used to ligate the distal end of the external carotid artery at 4 mm from the bifurcation of the common carotid artery, another 6-0 silk thread was inserted at the external carotid artery, and a slipknot was tied near the bifurcation of the common carotid artery. (3) An arterial clamp was used to clamp the common carotid artery. […] (4) The thread embolism was removed 90 min after ischemia, the proximal end of the external artery was ligated with a 6-0 silk thread, the neck wound was sutured with a 3-0 silk thread, the wound was disinfected with povidone iodine, the rats were placed on a heating pad, and after being awake, they were placed in a constant temperature rearing box for rearing. […] The experimental animals were scored for signs of neurological function deficit before and after modeling. The scoring standard was given by reference to the 5-point system of Longa and Bederson. The scoring was performed 24 h after the animals were awake from anesthesia. The higher the score, the more severe the behavioral disorder of the animals. 0 point: No nerve damage symptoms […] Inability to fully extend the contralateral front paw […] Turning in a circle to the opposite side […] Falling over to the opposite side 4 points: Inability to walk spontaneously, and loss of consciousness In a manner same as in Example 1, experimental animals were selected, except that the experiment was divided into seven groups (i.e., groups […], and G, among which groups C, D, and E were given different dosages of administration from Example 1, group F was given edaravone, and group G was given amifostine).
# [8] = tested on: radiation lung injury in C57 male mice; test: Protective effect on radiation lung injury (HE staining of lung); format: in vivo; conditions: 517 mpk i.p. 30 min before 17 Gy right lung irradiation; months 2, 4, 6
# Description: as §3, with “the” for “the abdominal”, “dose to the right lung” for “dose”, “17” for “16”, “[…] Lung tissues were taken at months 2, 4, and 6 for HE staining” for “staining.”
# [9] = Example 2 group G: amifostine 100 mg/kg i.p. 5 min before reperfusion
# [10] = amifostine 200 mg/kg i.p. 30 min prior to cisplatin 5 mg/kg i.p.
# [11] = Example 2 group F: edaravone 3 mg/kg i.v. before reperfusion
compound,measurement,setting,value
"[NH2][Pt]([NH2])([Cl])[Cl] [CDDP, cisplatin, reference compound]",Change in body weight,[1]; cisplatin alone 5 mg/kg i.p.,the body weight dropped significantly
same,Creatinine,[2]; cisplatin alone 5 mg/kg i.p.,58.6 µmol/L and 54.1 µmol/L and 78 µmol/L
same,Urea nitrogen,[2]; cisplatin alone 5 mg/kg i.p.,18.70 mmol/L and 7.81 mmol/L and 12.9 mmol/L
"O=[N+]([O-])O[C@@H]1CO[C@H]2[C@@H]1OC[C@@H]2O [Isosorbide mononitrate injection, Isosorbide mononitrate, reference compound]",Improvement rate (%) of myocardial infarction range,[3]; compared with model group,25.5%
same,Infarction range (%),"[3]; x ± s, n = 10",30.1 ± 6.7 %
same,Improvement rate (%) of LDH,[4]; compared with model group,22.4%
same,LDH,"[4]; serum, x ± s, n = 10",1472.7 ± 454.5 U/L
"NCCCNCCSP(=O)(O)O [amifostine, reference compound]",Changes in the intestinal villi structure (HE staining),[5],milder than that in the irradiation group
same,% Improvement of cerebral infarction area,[6]; [9],23.24%
same,Cerebral infarction area,[6]; [9],58.88 mm^3 and 20.71 mm^3 and 0 mm^3 and 244.96 mm^3 and 204.11 mm^3 and 20.31 mm^3
same,Change in body weight of cisplatin-induced SD rats,"[1]; 30 min prior to cisplatin 5 mg/kg i.p.: compound B 200 mg/kg i.p., compound A 800 mg/kg p.o., amifostine 200 mg/kg i.p., weighed daily",the degree of decrease was significantly better than that of the cisplatin group
same,% Behavioral improvement,[7]; [9],29.32%
same,Neurological function score After modeling,[7]; [9],2 (2×) and 1 (2×) and 3 (2×)
same,Effect on cisplatin-induced increase of blood creatinine and urea nitrogen (in words),"[2]; 30 min prior to cisplatin 5 mg/kg i.p.: compound B 200 mg/kg i.p., compound A 800 mg/kg p.o., amifostine 200 mg/kg i.p., day 5",significantly reduce the increased blood creatinine and urea nitrogen levels
same,Creatinine,[2]; [10],19.8 µmol/L and 38.9 µmol/L and 21.9 µmol/L
same,Urea nitrogen,[2]; [10],5.51 mmol/L and 5.34 mmol/L and 5.49 mmol/L
same,Inflammatory cell infiltration / radiation pneumonitis in lung (HE staining),[8],could partially relieve the inflammatory cell infiltration and reduce the occurrence of radiation pneumonitis
"CC1=NN(c2ccccc2)C(=O)C1 [edaravone, reference compound]",% Improvement of cerebral infarction area,[6]; [11],58.85% and 58.95%
same,Cerebral infarction area,[6]; [11],0 mm^3 (2×) and 10.31 mm^3 and 45.35 mm^3 and 220.66 mm^3 and 17.11 mm^3
same,% Behavioral improvement,[7]; [11],46.99%
same,Neurological function score After modeling,[7]; [11],1 (4×) and 2 and 3

# Reference: patent publication US20220259164A1, “USE OF AMINOTHIOL COMPOUNDS AS CEREBRAL NERVE OR HEART PROTECTIVE AGENT” (SHANGHAI KECHOW PHARMA, INC., priority 2019, published 2022)
